Results reported in US20260327263A1, “Anti-Bacterial Peptides” (priority 2023, published 2026).
Values after ≈ are worked out from the molar mass of the structure shown. Values joined by “and” are separate entries in the source; they are usually repeats but may differ in a detail not shown here. Equal values may be shown once. Read-outs that look alike come from different tables or passages of the source. Where a SMILES comes first, the peptide text is derived from it. Where no end group is shown, it is not given here. [ ]: non-standard residue; d: D form. 2Nal = N[C@@H](Cc1ccc2ccccc2c1)C(=O)O; d2Nal = N[C@H](Cc1ccc2ccccc2c1)C(=O)O

What was measured:
[1] = system: Pseudomonas aeruginosa (PA); experiment: Broth microdilution anti-bacterial assay (CLSI), Pseudomonas aeruginosa; format: cell-based, Pseudomonas aeruginosa (ATCC 14213)
Protocol: (§1) To evaluate their anti-bacterial potency, broth microdilution method as per the CLSI guidelines 1 was used. […] The anti-bacterial potency of the tested agents is quantified using minimum inhibitory concentration (MIC) and minimum bactericidal concentration (MBC). […] To obtain the MBC data, 1X, 2X and 4× MIC of the peptide variants were plated to obtain the number of viable colonies compared to the original inoculum.
(§2) Pseudomonas aeruginosa (ATCC 14213, PA), and methicillin resistant Staphylococcus aureus (BAA1717-USA 300, SA) were obtained from The American Type Culture Collection (ATCC).
(§3) Examination of the potency of modified short peptides against PA and SA strains was performed by using the broth microdilution protocol from the Clinical and Laboratory Standards Institute (CLSI) guidelines (CLSI 2012) as described. Briefly, five freshly plated bacteria colonies were grown in cation adjusted MH2 broth (BD Biosciences) in a shaker incubator at 37° C., 220 RPM. Cells were grown to an optical density (OD600) of ~0.2 measured using a Microplate Spectrophotometer (Molecular Devices Spectra Max Plus). 100 μL of microbial culture containing ~5×10^5 CFU/mL of bacteria in the respective broths were introduced into each well containing 100 μL of peptides and incubated overnight at 37° C. Next, to check the bactericidal effects, 100 μL from each well was transferred and spread on sterile MH2 agar plates. The plates were incubated overnight at 37° C. and the number of colonies forming units (CFU) were calculated the following day. Readings of bacteria grown in media without any treatments were normalized to 100% as media control. For the mixed infection study, three freshly plated bacteria colonies each from PA, SA and ST plates were grown together in cation adjusted MH2 broth and proceeded as described above.

[2] = system: Staphylococcus aureus (SA); experiment: Broth microdilution anti-bacterial assay (CLSI), Staphylococcus aureus; format: cell-based
Protocol: as §1, §2, §3

[3] = system: mixed bacterial infection (PA, SA and ST); experiment: Broth microdilution, mixed bacterial infection; format: cell-based
Protocol: Chronic wounds mostly present mixed infections where numerous pathogens colonize together.
as §3

[4] = system: Pseudomonas aeruginosa PA BAA-2110; experiment: Broth microdilution, PA BAA-2110 (lung infection in cystic fibrosis); format: cell-based, Pseudomonas aeruginosa (BAA-2110); settings: Pseudomonas aeruginosa, BAA2110
Protocol: (§4) Bacteria strains involved in lung infection in cystic fibrosis patients (PA-BAA 2110) and ear-eye infections (PA-CRM 9027) are treated with exemplary variant peptides, such as E1AM2 and Q19L.
as §3

[5] = system: Pseudomonas aeruginosa PA CRM-9027; experiment: Broth microdilution, PA CRM-9027 (ear-eye infections); format: cell-based, Pseudomonas aeruginosa (CRM-9027); settings: Pseudomonas aeruginosa, PACRM9027
Protocol: as §4, §3

[6] = system: Pseudomonas aeruginosa (PA); experiment: Antimicrobial resistance evolution assay, PA; format: cell-based; settings: for development of antimicrobial resistance, PA: serial passaging, 28 days, resistance = >4-fold MIC change
Excerpt: The development of antimicrobial resistance is defined by greater than a 4-fold change to their initial minimum inhibitory concentration (MIC) at day 1. Exemplary bacteria strains Pseudomonas aeruginosa (PA) and Staphylococcus aureus (SA) are subjected to continuous daily serial passaging over several days, with treatment of exemplary variant peptides E1AM2 (SEQ ID NO: 2) and Q19L (SEQ ID NO: […]) at subinhibitory concentrations. […] The treatments were discontinued when the MIC increased by more than four-fold from the initial MIC or when MIC reached >100 μM.
Briefly, sequential passaging of PA, and SA cells was done with sub-inhibitory concentrations of antibiotics or E1AM2 up to 4 weeks. The cells grown in those concentrations of antibiotics or peptides were diluted to A600 nm (OD600) of ~0.2 and serially passaged daily with the same concentrations at 37° C. with agitation at 24 h intervals.

[7] = system: Pseudomonas aeruginosa (PA); experiment: Combination of peptide with antibiotics against PA; format: cell-based
Excerpt: In view of the results above, the peptide variants as described herein show synergistic anti-bacterial effects when used in combination with antibiotics.
In some examples, the methods described herein further comprises administering an antibiotic agent to the subject.

bacteria = experiment: Comparison of wild-type peptide E1A to V8LQ19L (Table 14)
Excerpt: Active peptide sequences based on ENO3 exerting significant bactericidal antibiofilm properties, and relevant to chronic wound healing are previously disclosed. The previously disclosed antimicrobial peptides (AMPs) are longer (>22-residues) in length, which would be more costly in production.

[8] = PA, overnight, 37° C., ≥99% inhibition
[9] = SA, overnight, 37° C., ≥99% inhibition
[10] = with gentamicin and piperacillin

Compound	MBC ([1]; Pseudomonas aeruginosa) [µM]	MIC ([1]; Pseudomonas aeruginosa) [µM]	MBC ([2]; Staphylococcus aureus) [µM]	MIC ([2]; Staphylococcus aureus) [µM]	MIC [3] [µM]	MBC ([3]; mixed infection)	MBC [4] [µM]	MIC [4] [µM]	MBC [5] [µM]	MIC [5] [µM]	development of antimicrobial resistance, PA [6]	MIC [1, 8] [µM]	MBC ([1]; PA, ≥99% killing) [µM]	MIC [2, 9] [µM]	MBC ([2]; SA, ≥99% killing) [µM]	also measured
CN[C@@H]1[C@@H](O)C(O[C@@H]2[C@@H](O)[C@H](O[C@H]3O[C@H]([C@@H](C)NC)CC[C@H]3N)[C@@H](N)C[C@H]2N)OC[C@]1(C)O (stereo partly drawn) [Gentamicin, (3R,4R,5R)-2-{[(1S,2S,3R,4S,6R)-4,6-diamino-3-{[(2R,3R,6S)-3-amino-6-[(1R)-1-(methylamino)ethyl]oxan-2-yl]oxy}-2-hydroxycyclohexyl]oxy}-5-methyl-4-(methylamino) oxane-3,5-diol]	6.25 (≈ 2.99 µg/mL)	3.12 (≈ 1.49 µg/mL)	3.25 (≈ 1.55 µg/mL)	1.56 (≈ 0.745 µg/mL)	3.12 (≈ 1.49 µg/mL)	6.25 µM and 6.26 µM	25 (≈ 11.9 µg/mL)	25 (≈ 11.9 µg/mL)	12.5 (≈ 5.97 µg/mL)	6.25 (≈ 2.99 µg/mL)	developed resistance					AMR prevention / resistance induction ([6]; Table 15: in PA and SA, bacteria not named): induced resistance development in bacteria
CC(C)C[C@@H](NC(=O)[C@@H](C)NC(=O)[C@@H](CC(C)C)NC(=O)[C@@H](CCCCN)NC(=O)[C@@H](CC(C)C)NC(=O)[C@@H](C)NC(=O)[C@@H](CCCCN)NC(=O)[C@@H](CCCCN)NC(=O)[C@@H](CO)NC(=O)[C@@H](CC(C)C)NC(=O)[C@@H](CCCCN)NC(=O)[C@@H](CC(C)C)NC(=O)[C@@H](Cc1c[nH]c2ccccc12)NC(=O)[C@@H](CCCCN)NC(=O)[C@@H](CCCCN)NC(=O)[C@@H](CC(C)C)NC(=O)[C@@H](CC(C)C)NC(=O)[C@@H](CCCCN)NC(=O)[C@H](N)CCCCN)C(N)=O [E1AM2 D-V8L Q19L C-2-NH2] (H-[dK][dK][dL][dL][dK][dK][dW][dL][dK][dL][dS][dK][dK][dA][dL][dK][dL][dA][dL]-NH2)												1.56 (≈ 3.51 µg/mL)	1.56 (≈ 3.51 µg/mL)	1.56 (≈ 3.51 µg/mL)	1.56 (≈ 3.51 µg/mL)	MBC in combination with colistin [7]: reduced minimum bactericidal concentration (MBC); MIC in combination with colistin [7]: reduced minimum inhibitory concentration (MIC)
KVNQIGSVTESIQACKLAQSN [E1A, reference compound]																Cationicity (bacteria): Non-cationic (cannot disrupt; Mechanism of killing bacteria (bacteria): Unknown/non-membrane; Killing efficacy (in words) (bacteria; >99% inhibition or killing, even at 500 μM): Does not achieve >99%
CC(C)C[C@H](NC(=O)[C@H](C)NC(=O)[C@H](CC(C)C)NC(=O)[C@H](CCCCN)NC(=O)[C@H](CC(C)C)NC(=O)[C@H](C)NC(=O)[C@H](CCCCN)NC(=O)[C@H](CCCCN)NC(=O)[C@H](CO)NC(=O)[C@H](CC(C)C)NC(=O)[C@H](CCCCN)NC(=O)[C@H](CC(C)C)NC(=O)[C@H](Cc1ccc2ccccc2c1)NC(=O)[C@H](CCCCN)NC(=O)[C@H](CCCCN)NC(=O)[C@H](CC(C)C)NC(=O)[C@H](CC(C)C)NC(=O)[C@H](CCCCN)NC(=O)[C@@H](N)CCCCN)C(N)=O [E1AM2 W72Nal V8L Q19L C-2-NH2] (H-KKLLKK[2Nal]LKLSKKALKLAL-NH2)												1.56 (≈ 3.53 µg/mL)	1.56 (≈ 3.53 µg/mL)	1.56 (≈ 3.53 µg/mL)	1.56 (≈ 3.53 µg/mL)	MBC in combination with colistin [7]: reduced minimum bactericidal concentration (MBC); MIC in combination with colistin [7]: reduced minimum inhibitory concentration (MIC)
CC(C)C[C@@H](NC(=O)[C@@H](C)NC(=O)[C@@H](CC(C)C)NC(=O)[C@@H](CCCCN)NC(=O)[C@@H](CC(C)C)NC(=O)[C@@H](C)NC(=O)[C@@H](CCCCN)NC(=O)[C@@H](CCCCN)NC(=O)[C@@H](CO)NC(=O)[C@@H](CC(C)C)NC(=O)[C@@H](CCCCN)NC(=O)[C@@H](CC(C)C)NC(=O)[C@@H](Cc1ccc2ccccc2c1)NC(=O)[C@@H](CCCCN)NC(=O)[C@@H](CCCCN)NC(=O)[C@@H](CC(C)C)NC(=O)[C@@H](CC(C)C)NC(=O)[C@@H](CCCCN)NC(=O)[C@H](N)CCCCN)C(N)=O [E1AM2 D-W72Nal V8L Q19L C-2-NH2] (H-[dK][dK][dL][dL][dK][dK][d2Nal][dL][dK][dL][dS][dK][dK][dA][dL][dK][dL][dA][dL]-NH2)												1.56 (≈ 3.53 µg/mL)	1.56 (≈ 3.53 µg/mL)	1.56 (≈ 3.53 µg/mL)	1.56 (≈ 3.53 µg/mL)	MBC in combination with gentamicin and piperacillin [7, 10]: reduced minimum bactericidal concentration (MBC); MIC in combination with gentamicin and piperacillin [7, 10]: reduced minimum inhibitory concentration (MIC)
CCN1CCN(C(=O)N[C@@H](C(=O)N[C@@H]2C(=O)N3[C@@H]2SC(C)(C)[C@@H]3C(=O)O)c2ccccc2)C(=O)C1=O [Piperacillin, (2S,5R,6R)-6-{[(2R)-2-[(4-ethyl-2,3-dioxo-piperazine-1-carbonyl)amino]-2-phenyl-acetyl]amino}-3,3-dimethyl-7-oxo-4-thia-1-azabicyclo[3.2.0]heptane-2-carboxylic acid]	50 (≈ 25.9 µg/mL)	25 (≈ 12.9 µg/mL)	12.5 (≈ 6.47 µg/mL)	6.25 (≈ 3.23 µg/mL)	25 (≈ 12.9 µg/mL)	25 µM (≈ 12.9 µg/mL)	25 (≈ 12.9 µg/mL)	12.5 (≈ 6.47 µg/mL)	6.25 (≈ 3.23 µg/mL)	6.25 (≈ 3.23 µg/mL)	developed resistance					
O=C(O)c1cn(C2CC2)c2cc(N3CCNCC3)c(F)cc2c1=O [Ciprofloxacin, 1-cyclopropyl-6-fluoro-4-oxo-7-(piperazin-1-yl)-quinoline-3-carboxylic acid]						25 µM (≈ 8.28 µg/mL)					developed resistance					
KKLLKKWVKLSKKALKLAQSL-NH2 [E1AM2-NH2]						6.25 µM						3.125	6.25	6.25	12.5	MIC ([3]; mixed infection): 6.25 µM
CO/N=C(\C(=O)N[C@@H]1C(=O)N2C(C(=O)[O-])=C(C[N+]3(C)CCCC3)CS[C@H]12)c1csc(N)n1 [Cefepime]	25 (≈ 12 µg/mL)	12.5 (≈ 6.01 µg/mL)	25 (≈ 12 µg/mL)	12.5 (≈ 6.01 µg/mL)	12.5 (≈ 6.01 µg/mL)	12.5 µM (≈ 6.01 µg/mL)	25 (≈ 12 µg/mL)	12.5 (≈ 6.01 µg/mL)	1.56 (≈ 0.75 µg/mL)	1.56 (≈ 0.75 µg/mL)	developed resistance					
CC(C)C[C@@H](NC(=O)[C@@H](CO)NC(=O)[C@@H](CC(C)C)NC(=O)[C@@H](C)NC(=O)[C@@H](CC(C)C)NC(=O)[C@@H](CCCCN)NC(=O)[C@@H](CC(C)C)NC(=O)[C@@H](C)NC(=O)[C@@H](CCCCN)NC(=O)[C@@H](CCCCN)NC(=O)[C@@H](CO)NC(=O)[C@@H](CC(C)C)NC(=O)[C@@H](CCCCN)NC(=O)[C@@H](CC(C)C)NC(=O)[C@@H](Cc1c[nH]c2ccccc12)NC(=O)[C@@H](CCCCN)NC(=O)[C@@H](CCCCN)NC(=O)[C@@H](CC(C)C)NC(=O)[C@@H](CC(C)C)NC(=O)[C@@H](CCCCN)NC(=O)[C@H](N)CCCCN)C(N)=O [D-V8LQ19L] (H-[dK][dK][dL][dL][dK][dK][dW][dL][dK][dL][dS][dK][dK][dA][dL][dK][dL][dA][dL][dS][dL]-NH2)												3.125 (≈ 7.66 µg/mL)	3.125 (≈ 7.66 µg/mL)	3.125 (≈ 7.66 µg/mL)	3.125 (≈ 7.66 µg/mL)	anti-bacterial activity (in words) ([1]; PA and SA): retains the strong anti-bacterial effects
